“And” between values parts separate entries of the source, which are not always exact repeats. Equal entries are not always repeated. Where two headings read alike, the source gives them in different places.
Assays:
HRV14-induced vNOX = test: Spectrophotometric vNOX activity assay (NADH oxidation) with HRV-infected MCF-10A cells
[1] = test system: tNOX-like activity (vNOX); test: NADH oxidase activity at the surface of HRV14-infected MCF-10A cells (tNOX-like activity, 22 min period); assay type: biochemical, human; conditions: 1 μM, added after 45 min
Procedure: FIG. 11: NADH oxidase activity assayed for 90 min at the surface of MCF-10A human mammary epithelial cells. Capsaicin (1 μM) was added after 45 min and the assay was continued for an additional 45 min. Top Panel: No virus. Bottom Panel: MCF-10A human mammary cells infected with HRV 14. The MCF-10A cells normally lack a drug-inhibited NOX activity (lack tNOX). The normal, capsaicin-resistant constitutive NOX activity with a period length of 24 min is shown by the single downward pointing arrows. The triple arrows are tNOX-like activities with a period length of 22 min and which were inhibited by capsaicin. This activity appeared only in the virus-infected cells (see also FIG. 12). The upward pointing arrows denote a capsaicin-stimulated activity sometimes observed in proliferating endothelial cells present both with and without virus. tNOX-like activities (triple arrows) inhibited by 1 μM capsaicin now dominate the activity pattern.
FIG. 12: As in FIG. 11 except 20 h post-infection with HRV 14. Top Panel: No virus. The control MCF-10A cells normally lack a drug-inhibited NOX activity (lack tNOX). Bottom Panel: MCF-10A cells 20 h post infection with HRV 14. The normal, capsaicin-resistant constitutive NOX activity with a period length of 24 min is shown by the single downward pointing arrows. […]

MT-2 cells = test: Toxicity to non-infected MT-2 cells by MTT utilization; assay type: cell-based, human
Procedure: After 5 days, 20 μl of MTT stock solution (7.5 mg/ml) was added. […] Subsequently, 100 μl of 10% v/v Triton X100 in acidified isopropanol was added, and absorbance was determined at 550 nm with reference at 630 nm. The cytotoxic effect of EGCg was reflected by a decrease of the cell viability of mock infected cells in the presence of EGCg in comparison to mock infected cells without EGCg (OD 492 nm) was lower than the value of mock infected cells without EGCg. The cytotoxicity values are given as negative values. Positive values are recorded for a stimulatory effect on cell viability and/or an increase in cell proliferation. Testing the antiviral potency of various compositions was accomplished as follows. EGCg and EC were from Sigma (St. Louis, Mo.). Stock solutions of 100 mM were prepared in ethanol and serially diluted with water between 10^−3 molar and 10^−9 molar. […] Each experiment was in a fourfold assay.

HRV14 [2] = test: HRV14-induced CPE in less sensitive (Berlin) HeLa strain, XTT test; assay type: cell-based, human rhinovirus; conditions: for EC50: read-out: EC50 to prevent a cytopathic effect
Procedure: Inhibition by CapsiVirol-T of the HRV cytopathic effect and effects on cell viability were tested using a HeLa strain which is less sensitive to tNOX inhibitors than certain other HeLa cells (Institute for Infectious Medicine, Berlin, Germany) (FIG. 17). In these studies, both CapsiVirol-T and EGCg, the principal green tea catechin, were tested. […] The test substance-containing medium was removed and the cells were infected with viruses at a multiplicity of infection of 0.1. For controls, virus infections were in the absence of the test substance. Mock infections were in the presence and absence of the test substance. Cell viability was measured in the XTT test directly at the days post infection (d.p.i.) indicated (FIG. 17). […] The cytopathic effect induced by a virus was determined from a decrease of cell viability (=decrease of […] nm in comparison to the mock infected control in the absence of the test substance). […] Cell viability was measured with the XTT test. Virus inoculation in the presence of CapsiVirol-T (without FCS) was for 30 min. […] Cell viability was monitored using the XTT test after 1, 2, and 3 days p.i. A control was at 1.5 h p.i. (in the figure 0 d p.i.) (FIG. 18). High OD values represent living cells, and low OD values represent cell damage. This damage is either induced by HRV14 (=cytopathic effect/CPE) or a toxic effect of the compound in mock-infected cells.

[3] = test system: TMEV/GDVII virus, TMEV/Bean virus; assay type: cell-based, Theiler's murine encephalomyelitis virus; conditions: RAW macrophages
[4] = test system: human peripheral blood lymphocytes; test: Viability of human peripheral blood lymphocytes; assay type: cell-based; conditions: data not shown
HIV-1 strain 952 = HIV-1 strain 952 infection of peripheral blood monocytes (p24 ELISA and syncytia titer on MT-2 cells); assay type: cell-based
Text: FIG. 4: ELISA of supernatant p24 antigen of HIV-1 strain 952 (solid line; solid symbols) and HIV-1 titer based on number of syncytia observed by light microscopy on day 5 by titration of the day 4 supernatants in previously uninfected MT-2 cells (dashed line; open symbols) as a measure of mature virus production after 4 d with HIV strain 952 (City Laboratory, Hamburg) and mononuclear cells in peripheral blood (PBMCs)=peripheral blood monocytes prepared from healthy volunteers, as described herein below. Assays were in triplicate ±standard deviations.
As non-permanent cells, PBM cells were derived from freshly prepared pooled buffy coats from healthy blood donors. The PBM cells were isolated by Ficoll density gradient centrifugation and cultivated (stimulated with phytohemagglutinin) for 48 h in RPMI 1640 medium supplemented with 20% FBS and L-glutamine. PBMC tropic laboratory isolate No. 9.5 was used in the PBMC assays.
Virus replication was determined as follows. Antiviral activity was assessed at day four or five after infection by scoring p24 antigen production by a commercial kit (DuPont) and by titration of the supernatants. […] After 5 d, all wells were scored for SI formation by light microscopy. The highest dilution (titer) displaying at least one SI were scored as positive, and the highest titers were averaged. […]

mock-infected HeLa cells = test: Toxicity (cell viability) in mock-infected HeLa cells, XTT test; assay type: cell-based, human; conditions: at EC50 concentrations (0.1 μM and below)
Procedure: Inhibition by CapsiVirol-T of the HRV cytopathic effect and effects on cell viability were tested using a HeLa strain which is less sensitive to tNOX inhibitors than certain other HeLa cells (Institute for Infectious Medicine, Berlin, Germany) (FIG. 17). In these studies, both CapsiVirol-T and EGCg, the principal green tea catechin, were tested. […] The test substance-containing medium was removed and the cells were infected with viruses at a multiplicity of infection of 0.1. For controls, virus infections were in the absence of the test substance. Mock infections were in the presence and absence of the test substance. Cell viability was measured in the XTT test directly at the days post infection (d.p.i.) indicated (FIG. 17). […] The cytopathic effect induced by a virus was determined from a decrease of cell viability (=decrease of […] nm in comparison to the mock infected control in the absence of the test substance). Cell viability was monitored using the XTT test after 1, 2, and 3 days p.i. A control was at 1.5 h p.i. (in the figure 0 d p.i.) (FIG. 18). High OD values represent living cells, and low OD values represent cell damage. This damage is either induced by HRV14 (=cytopathic effect/CPE) or a toxic effect of the compound in mock-infected cells.

Herpes simplex virus 1 = assay type: cell-based; conditions: HeLa cells
[5] = test system: HXB II standard virus strain of HIV; test: HIV-1 replication in MT-2 cells scored by p24 antigen production; assay type: cell-based
Text: (§1) The MT-2 cell line, which cells are retrovirus transformed, was used. Virus applied to the MT-2 cells was the HXB II standard virus strain of HIV, isolated early in the 1980's (HIV Research Community Standard Reference Gene Sequence Data Base No. 135829). […] The main characteristic of the HXBII virus strain was to induce syncytia (SI) in certain cells such as MT-2 cells. This permitted assessment of the production of HIV by light microscopy, and thus, by titration of supernatant, the amount of infectious virus. Virus replication was determined as follows. Antiviral activity was assessed at day four or five after infection by scoring p24 antigen production by a commercial kit (DuPont) and by titration of the supernatants. Each well of each concentration of compound was titrated in a fourfold assay. MT-2 cells (4×10^5 per well) were added to all titration steps. After incubation, 100 μl of supplemented RPMI 1640 was added. After 5 d, all wells were scored for SI formation by light microscopy. The highest dilution (titer) displaying at least one SI were scored as positive, and the highest titers were averaged. […] Both MT-2 cell and PBM cell supernatants were titered on MT-2 cells. Testing the antiviral potency of various compositions was accomplished as follows. EGCg and EC were from Sigma (St. Louis, Mo.). Stock solutions of 100 mM were prepared in ethanol and serially diluted with water between 10^−3 molar and 10^−9 molar. […] Each experiment was in a fourfold assay.

[6] = test system: HXB II standard virus strain of HIV; test: HIV-1 replication in MT-2 cells scored by titration of supernatants (syncytia); assay type: cell-based
Text: as §1

HIV = test: Infectivity of HIV in MT-2 cells or PBMCs at different control virus titers; assay type: cell-based
human rhinovirus HRV 14 = test: HRV-HeLa test system: cytopathic effect of human rhinovirus in HeLa cells; assay type: cell-based; conditions: HRV 14, HeLa, XTT test 72 h post infection; read-out: EC50 inhibition of CPE
HRV14 [7] = test: HRV14 cytopathic effect in human osteoblast (hFOB) cells; conditions: between 1 and 1000 nM
[8] = read-out: EC50 Cell Production I (Mar. 24, 2003), 73 h hrv-infected MCF-10A cells
[9] = read-out: EC50 inhibition of vNOX
[10] = read-out: EC50 Cell Production II (Apr. 01, 2003), 73 h hrv-infected MCF-10A cells

SMILES: CC(=O)Nc1ccc(O)cc1 [Acetaminophen]
- EC50 inhibition of vNOX, range in words (HRV14-induced vNOX): micromolar range
- EC50 (HRV14-induced vNOX; [8]): 1000 nM

SMILES: COc1cc(CNC(=O)CCCC/C=C/C(C)C)ccc1O [Capsaicin]
- tNOX-like activities with a period length of 22 min [1]: inhibited
- EC50 (HRV14-induced vNOX; read-out: EC50 Cell Production IV (May 01, 2003), 72 h HRV-infected MCF-10A cells): 1 nM

SMILES: Oc1cc(O)c2c(c1)O[C@H](c1ccc(O)c(O)c1)[C@H](O)C2 [EC, (−)-epicatechin]
- toxicity by MTT utilization (MT-2 cells): no toxicity

SMILES: O=C(O[C@@H]1Cc2c(O)cc(O)cc2O[C@@H]1c1cc(O)c(O)c(O)c1)c1cc(O)c(O)c(O)c1 [EGCg, (−)-epigallocatechin-3-gallate]
- fold higher concentration compared to CapsiVirol-T required to achieve inhibition (HRV14 [2]): ≥ 10 fold
- EC50 (HRV14 [2]; day 1): < 100 nM
- EC50 (HRV14 [2]; day 2): 100 nM
- infection [3]: prevented
- reduction of MTT utilization (MT-2 cells; 10^−4 M): 90%
- cytotoxic effects by MTT utilization (MT-2 cells; dilutions of less than 10^−5 M): no cytotoxic effects
- effect on viability [4]: without effect
- infection (production of infective particles based on p24 assay) (HIV-1 strain 952; 10 μM, PBMC, strain 952): prevented
- EC50 (HIV-1 strain 952; PBMC supernatants, read-out: EC50 for inhibition of production of infective virus (syncytia formation after 5 days on MT-2 cells)): < 1000 nM
- toxicity (mock-infected HeLa cells): not toxic
- infection (Herpes simplex virus 1): prevented
- effect on p24 production ([5]; 1 nM): no effect
- inhibition of virus production (p24) as compared to the virus control ([5]; 10^−4 M, 4 or 5 d): 93%
- inhibition of virus replication (p24) ([5]; 10^−5 M, 4 or 5 d): 45%
- inhibitory effect (p24) ([5]; 10^−6 and 10^−7 M): approximately 20%
- EC50 (HRV14-induced vNOX; [9]): 10 nM
- reduction of titers ([6]; 1 nM): no reduction
- titrated virus, % of the virus control or EC control ([6]; 10^−5 M): 20%
- reduction of titers ([6]; 10^−6 and 10^−7 M): approximately 50%
- reduction of titers ([6]; 10^−8 M): 40%
- infectivity (syncytia reassay) (HIV; 1 μM): almost entirely prevented
- EC50 (HIV; control virus production of 14,000 infective particles/ml, read-out: EC50 reducing infectivity of HIV): ~1000 nM
- EC50 (HIV; control virus production of 40,000 infective particles/ml, read-out: EC50 reducing infectivity of HIV): ~10000 nM
- EC50 (HIV; read-out: EC50 for prevention of infection (day 4 supernatants reassayed on MT-2 cells, syncytia after 5 days)): ~100 nM
- EC50 (human rhinovirus HRV 14): ~1000 nM

SMILES: CC(C)Cc1ccc(C(C)C(=O)O)cc1 (stereo not shown) [Ibuprofen]
- EC50 inhibition of vNOX, range in words (HRV14-induced vNOX): micromolar range
- EC50 (HRV14-induced vNOX; [8]): 1000 nM
- EC50 (HRV14-induced vNOX; [9]): ~10000 nM

SMILES: COc1ccc2cc([C@H](C)C(=O)O)ccc2c1 [Naproxen]
- EC50 inhibition of vNOX, range in words (HRV14-induced vNOX): micromolar range
- EC50 (HRV14-induced vNOX; [8]): 5000 nM
- EC50 (HRV14-induced vNOX; [10]): 2000 nM
- EC50 (HRV14-induced vNOX; [9]): ~10000 nM

SMILES: COc1cc(CN)ccc1O [Vanillylamine]
- EC50 (HRV14-induced vNOX; [9]): 0.1 nM

SMILES: [Cl-].[Cl-].[Zn+2] [ZnCl2, zinc chloride]
- reduction of the cytopathic effect (HRV14 [7]; virus dilution of 1:20): 71±9%
- reduction of the cytopathic effect (HRV14 [7]; virus dilution of 1:50): 50%±14%
- EC50 (HRV14-induced vNOX; [8]): 10 nM
- EC50 (HRV14-induced vNOX; [10]): 10 nM
- EC50 (HRV14-induced vNOX; [9]): ~10 nM and 10 nM
